Test system: SAM-MYOC mice
Assay: Intraocular pressure (IOP) in SAM-MYOC mice
Type: in vivo, mouse
Conditions: SAM-MYOC mice approximately 10 weeks after AAV2.Y3F-SAM-g4; one drop per eye; IOP at 2, 4, 6, and 24 hours
Procedure: To validate the SAM mice comprising a humanized MYOC locus comprising a Y437H mutation (SAM-MYOC mice), SAM-MYOC mice homozygous or heterozygous for the humanized MYOC locus were treated with AAV2.Y3F-SAM-g4, AAV2.Y3F-SAM-g5, an AAV2.Y3F-SAM-LacZ control, or nothing (naïve). […] This validated the SAM-MYOC mice as a suitable MYOC disease model with increased IOP.
IOP-lowering drugs used to treat glaucoma patients were then tested as a proof-of-concept to determine if they could lower the IOP observed in the SAM-MYOC mice following treatment with SAM-g4. We tested two IOP-lowering drugs: (1) timolol (a beta blocker that suppresses aqueous humor formation); and (2) RHOPRESSA® (a ROCK inhibitor that increases outflow of aqueous humor). […] At 0 hours, the IOP was measured, and each eye received one drop of either timolol or RHOPRESSA®, and IOP was measured at 2, 4, 6, and 24 hours after treatment.
An siRNA targeting human MYOC was then tested to determine if it could lower the high IOP observed in the SAM-MYOC mice following treatment with SAM-g4. SAM-g4 was administered via intracameral (IC) injection at day 0, and baseline IOP was measured. IOP was then measured over the following five weeks. At week five, MYOC siRNA #1 (1 μL, 15 μg dose) was administered via intravitreal (IVT) injection, and IOP was measured at various timepoints over the subsequent weeks. […]

## CC(C)(C)NC[C@H](O)COc1nsnc1N1CCOCC1 [timolol]
  IOP after IOP-lowering drug: effective at lowering IOP
